Target: T1, rHPLOE (recombinant hemolymph plasma lectin)
T1 construct: gene hpl; E. coli codon-optimised synthetic gene hplOE in pET-23a(+), BL21(DE3) with chaperones (pG-KJE8); His-tag kept; HisTrap purified
Assay: competitive ELISA against coated PA14 biofilm extract
Parameters: species or system Tachypleus tridentatus
Conditions: 0.1 uM rHPLOE; 37 °C, 1 h; competitor of binding to cell-free P. aeruginosa PA14 biofilm; one-site Ki fit
Excerpt: competitive ELISA against coated PA14 biofilm extract on rHPLOE (recombinant hemolymph plasma lectin) | The inhibitory constant (Ki) of L-rhamnose to rHPLOE interaction with the biofilm

Compound `C[C@@H]1OC(O)[C@H](O)[C@H](O)[C@H]1O` (stereo partly drawn) [L-rhamnose] has a Ki of 98 mM.

— publication PMC6628293, “Rhamnose Binding Protein as an Anti-Bacterial Agent—Targeting Biofilm of Pseudomonas aeruginosa” (Marine Drugs, 2019)
